Assay results taken from the supplement of paper PMC10883282.

What was measured:
Test in all cases: relative viability vs DMSO control (72 h) (fraction); higher = more viable cells
[1] = test system: SK-LMS-1
In short: (§1)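 Sarcoma cell lines were grown in 384-well plates seeded toward 80–90% confluence and exposed 24 h later to serially diluted compound. After 72 h at 37 °C and 5% CO2, with 0.1% DMSO vehicle and a 5 µM positive control on the plates, ATPLite was read. Relative viability, given as percent growth averaged over up to triplicate wells, was rescaled so that 1 is full and 0 is none.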

[2] = test system: G401
In short: as §1

[3] = test system: RD-ES
In short: as §1

[4] = test system: KHOS-NP
In short: as §1

[5] = test system: SW872
In short: as §1

[6] = test system: MES-SA
In short: as §1

[7] = test system: VA-ES-BJ
In short: as §1

[8] = test system: SW1353
In short: as §1

[9] = test system: HT1080
In short: as §1

[10] = test system: RD
In short: as §1

[11] = test system: SW684
In short: as §1

[12] = test system: SK-ES-1
In short: as §1

COc1cc2ncnc(Nc3cccc(Cl)c3F)c2cc1OC(=O)N1CCN(C)C[C@H]1C [AZD-3759]
Settings	relative viability
[1], 0.00017 µM	1.14
[1], 0.00051 µM	1.12
[1], 0.00152 µM	1.08
[1], 0.00457 µM	1.09
[1], 0.01372 µM	1.09
[1], 0.04115 µM	1.09
[1], 0.1235 µM	1.09
[1], 0.3704 µM	1.088
[1], 1.111 µM	1.07
[1], 3.333 µM	1.02
[1], 10 µM	1.05
[2], 0.00017 µM	1.03
[2], 0.00051 µM	1.06
[2], 0.00152 µM	1.04
[2], 0.00457 µM	1.01
[2], 0.01372 µM	1.02
[2], 0.04115 µM	1.02
[2], 0.1235 µM	1.04
[2], 0.3704 µM	1.04
[2], 1.111 µM	1
[2], 3.333 µM	0.985
[2], 10 µM	0.939
[3], 0.00017 µM	0.97
[3], 0.00051 µM	0.967
[3], 0.00152 µM	0.9816
[3], 0.00457 µM	0.977
[3], 0.01372 µM	0.983
[3], 0.04115 µM	0.991
[3], 0.1235 µM	0.9757
[3], 0.3704 µM	0.9684
[3], 1.111 µM	0.961
[3], 3.333 µM	0.948
[3], 10 µM	0.915
[4], 0.00017 µM	1.1
[4], 0.00051 µM	1.11
[4], 0.00152 µM	1.105
[4], 0.00457 µM	1.1
[4], 0.01372 µM	1.109
[4], 0.04115 µM	1.07
[4], 0.1235 µM	1.09
[4], 0.3704 µM	1.04
[4], 1.111 µM	1.07
[4], 3.333 µM	0.998
[4], 10 µM	1.02
[5], 0.00017 µM	1.07
[5], 0.00051 µM	1.1
[5], 0.00152 µM	1.06
[5], 0.00457 µM	1.058
[5], 0.01372 µM	1.032
[5], 0.04115 µM	1.05
[5], 0.1235 µM	1.04
[5], 0.3704 µM	1.02
[5], 1.111 µM	1.04
[5], 3.333 µM	0.9635
[5], 10 µM	0.828
[6], 0.00017 µM	0.938
[6], 0.00051 µM	0.921
[6], 0.00152 µM	0.953
[6], 0.00457 µM	0.917
[6], 0.01372 µM	0.94
[6], 0.04115 µM	0.929
[6], 0.1235 µM	0.921
[6], 0.3704 µM	0.891
[6], 1.111 µM	0.902
[6], 3.333 µM	0.8425
[6], 10 µM	0.777
[7], 0.00017 µM	1.03
[7], 0.00051 µM	1.05
[7], 0.00152 µM	1.04
[7], 0.00457 µM	1.02
[7], 0.01372 µM	1.02
[7], 0.04115 µM	0.992
[7], 0.1235 µM	0.986
[7], 0.3704 µM	0.949
[7], 1.111 µM	0.975
[7], 3.333 µM	0.972
[7], 10 µM	0.952
[8], 0.00017 µM	1.02
[8], 0.00051 µM	1.02
[8], 0.00152 µM	1.04
[8], 0.00457 µM	0.998
[8], 0.01372 µM	0.964
[8], 0.04115 µM	0.983
[8], 0.1235 µM	0.979
[8], 0.3704 µM	0.868
[8], 1.111 µM	0.877
[8], 3.333 µM	0.8196
[8], 10 µM	0.769
[9], 0.00017 µM	1.06
[9], 0.00051 µM	1.04
[9], 0.00152 µM	1.02
[9], 0.00457 µM	1.04
[9], 0.01372 µM	1.03
[9], 0.04115 µM	1.03
[9], 0.1235 µM	1.01
[9], 0.3704 µM	1.02
[9], 1.111 µM	1.026
[9], 3.333 µM	1
[9], 10 µM	1.02
[10], 0.00017 µM	1.04
[10], 0.00051 µM	1.1
[10], 0.00152 µM	1.1
[10], 0.00457 µM	1.1
[10], 0.01372 µM	1.11
[10], 0.04115 µM	1.09
[10], 0.1235 µM	1.09
[10], 0.3704 µM	1.12
[10], 1.111 µM	1.08
[10], 3.333 µM	1.06
[10], 10 µM	0.97
[11], 0.00017 µM	1.14
[11], 0.00051 µM	1.16
[11], 0.00152 µM	1.16
[11], 0.00457 µM	1.13
[11], 0.01372 µM	1.15
[11], 0.04115 µM	1.12
[11], 0.1235 µM	1.11
[11], 0.3704 µM	1.14
[11], 1.111 µM	1.16
[11], 3.333 µM	1.1
[11], 10 µM	1.05
[12], 0.00017 µM	1.09
[12], 0.00051 µM	0.999
[12], 0.00152 µM	1.06
[12], 0.00457 µM	1.01
[12], 0.01372 µM	1.06
[12], 0.04115 µM	1.06
[12], 0.1235 µM	0.978
[12], 0.3704 µM	0.999
[12], 1.111 µM	1.02
[12], 3.333 µM	0.908
[12], 10 µM	0.83
